Results on one molecule are retold here after article PMC7999182, “Interaction of Remdesivir with Clinically Relevant Hepatic Drug Uptake Transporters” (Pharmaceutics, 2021).

The conditions of data set [1]: cited from earlier work.
Data set [2] deals with T1, OATP2B1 (Homo sapiens, UniProt O94956).
T1 construct: expressed in transfected cells
T1 sequence (O94956 1-709): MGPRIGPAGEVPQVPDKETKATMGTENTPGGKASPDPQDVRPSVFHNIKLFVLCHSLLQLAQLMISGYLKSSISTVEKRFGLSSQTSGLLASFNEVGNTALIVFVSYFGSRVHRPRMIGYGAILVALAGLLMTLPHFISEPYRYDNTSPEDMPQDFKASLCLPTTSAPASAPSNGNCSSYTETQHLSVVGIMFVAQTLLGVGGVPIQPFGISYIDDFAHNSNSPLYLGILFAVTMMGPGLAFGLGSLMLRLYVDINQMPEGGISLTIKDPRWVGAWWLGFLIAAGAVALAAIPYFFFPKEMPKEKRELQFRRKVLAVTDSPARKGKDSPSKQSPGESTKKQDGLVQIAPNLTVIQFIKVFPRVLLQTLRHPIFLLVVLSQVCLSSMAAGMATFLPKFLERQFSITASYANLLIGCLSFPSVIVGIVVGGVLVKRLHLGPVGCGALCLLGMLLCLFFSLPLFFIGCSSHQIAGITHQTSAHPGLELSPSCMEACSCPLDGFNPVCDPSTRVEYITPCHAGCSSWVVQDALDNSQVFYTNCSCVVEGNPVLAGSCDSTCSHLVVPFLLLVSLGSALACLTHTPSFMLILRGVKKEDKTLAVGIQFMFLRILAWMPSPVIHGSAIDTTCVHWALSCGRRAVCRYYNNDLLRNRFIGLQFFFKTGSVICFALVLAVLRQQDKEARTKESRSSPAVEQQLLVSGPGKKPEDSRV
Put plainly: Remdesivir uptake into HEK cells stably expressing OATP2B1 vs vector control. The format is in vitro ADME. Conditions: 5 µM remdesivir, 10 min, transporter-expressing vs control HEK cells. An excerpt: (§1) Generation, cultivation and characterization of human embryonic kidney (HEK) cells stably expressing OATP1B1 refseq (=OATP1B1*1a), OATP1B1*1b, OATP1B1*5 and OATP1B1*15 [18], OATP1B3 [19], OATP2B1 [13] and OCT1 [20] have been described previously. OATP1B1 cells were cultivated in minimal essential medium (Life Technologies, Paisley, UK) and OATP1B3, OATP2B1 and OCT1 cells were cultivated in Dulbecco’s modified Eagle medium (Sigma, Darmstadt, Germany). Cultivation media were supplemented with 10% fetal calf serum, 100 U/mL penicillin and 100 µg/mL streptomycin. Cells were grown at 37 °C and 5% CO2. Functionality of the cells was confirmed by measuring uptake of prototypic substrates (see Section 2.3 and supplementary material).
Uptake assays were conducted at 37 °C according to previously described methods. For this, cells were seeded in 24-well plates (320,000 cells/well) and cultured for 2 days. Cells were then incubated for a further 24 h in culture medium with 5 mM butyrate (OATP1B3, OATP2B1, OCT1) or 10 mM butyrate (OATP1B1) to increase protein levels of recombinant transporters. […]
Remdesivir was determined by UHPLC-MS-MS analysis on an Agilent 1290 infinity UHPLC system coupled to an Agilent 6495B triple quadrupole mass spectrometer (Agilent, Waldbronn, Germany) similar to a recently published method. […]

Data set [3] deals with T1, OATP2B1. Put plainly: Inhibition of OATP2B1-mediated estrone sulfate uptake. It counts as cell-based.
Description: as §1
Prototypic substrate uptake was performed as described previously. For this, uptake solutions contained the respective substrate with tracer amounts of radiolabeled substrate. In case of inhibition studies, uptake solutions additionally contained different concentrations of remdesivir. […] Cells were then lysed with 0.2% sodium dodecyl sulfate and intracellular radioactivity was measured by liquid scintillation counting (Tricarb2800, PerkinElmer Life Sciences GmbH, Rodgau, Germany or Hidex 300SL TDCR liquid scintillation counter, Turku, Finland). […]

Structures are written as SMILES.

As usually defined, the Cmax is the peak of the concentration-time curve.

For `CCC(CC)COC(=O)[C@H](C)N[P@](=O)(OC[C@H]1O[C@@](C#N)(c2ccc3c(N)ncnn23)[C@H](O)[C@@H]1O)Oc1ccccc1` [Remdesivir], in data set [1] (30 min after iv administration of 200 mg remdesivir for 30 min), the peak plasma concentration was approximately 10 µM. Further, the t1/2 in data set [1] is reported as 1 h. Further, in data set [1] (intravenous 100 mg remdesivir, healthy adults), the Cmax is 3.7 µM. Also, the Remdesivir uptake ratio in data set [2] came out at 1.4. The “Effect on prototypic substrate uptake” value in data set [3] (1 µM estrone sulfate, 30 sec uptake, different remdesivir concentrations) was “significant concentration-dependent inhibitory effect”. Also, the “Transporter inhibition at 10 µM” value in data set [3] (10 µM remdesivir, estrone sulfate as substrate) is recorded as “inhibition”.
